Data from patent US20060014740A1 (priority 2003, published 2006).
Read-outs that look alike come from different tables or passages of the source. One block for each compound: values may come before it.

Assays:
[1] = tested on: PC-3 human prostate cancer cells; assay: SRB cytotoxicity assay, PC-3; assay type: cell-based; conditions: Homo sapiens, 96 h, read-out: IC50 PC-3
Protocol: (§1) For in vitro cytotoxicity screening, 1000 to 5000 cells were plated into each well of 96-well plates depending on growth rate, and exposed to different concentrations of a test compound for 96 h in three to five replicates. All the compounds were dissolved in dimethyl sulfoxide at 5 to 20 mM, and diluted to desired concentrations in complete culture medium. Cell numbers at the end of the drug treatment were measured by the SRB assay (Gududuru et al., “Synthesis and Biological Evaluation of Novel Cytotoxic Phospholipids for Prostate Cancer,” Bioorg. Med. Chem. Lett. 14:4919-4923 (2004); Rubinstein et at., “Comparison of in vitro Anticancer-Drug-Screening Data Generated with a Tetrazolium Assay Versus a Protein Assay Against a Diverse Panel of Human Tumor Cell Lines,” J. Naatl, Cancer Inst. 82:1113-1118 (1990), each of which is hereby incorporated by reference in its entirety). Briefly, the cells were fixed with 10% of trichloroacetic acid, stained with 0.4% SRB, and the absorbances at 540 nm was measured using a plate reader (DYNEX Technologies, Chantilly, Va.).
(§2) The antiproliferative activity of all the synthesized compounds was evaluated against five human prostate cancer cell lines and in RH7777 cells (negative control) using the sulforhodamine B (SRB) assay (see description in Example 5 above).
(§3) The chosen cell lines represent different basal levels of active AKT and LPL receptor expression (discussed later). Cells were exposed to a wide range of concentrations (0 to 100 μM) of the indicated compound for 96 h. Cell numbers at the end of treatment were measured using the sulforhodamine B (SRB) assay^5.
(§4) Cells were exposed to a wide range of concentrations (0 to 100 μM) of the particular compound for 96 h in 96 well plates. Cells were fixed with 10% trichloroacetic acid, washed five times with water. The plates were air dried overnight and fixed cells were stained with SRB solution. The cellular protein-bound SRB was measured at 540 nm using a plate reader. Cell numbers at the end of the treatment were measured.
as §4, with “96-well” for “96 well”, “calculated as a percentage of untreated control.” for “measured.”

[2] = tested on: TSU-Pr1 human prostate cancer cells; assay: SRB cytotoxicity assay, TSU-Pr1; assay type: cell-based; conditions: Homo sapiens, read-out: IC50 TSU-Pr1
Protocol: (§5) Dr. Mitchell Steiner at University of Tennessee Health Science Center, kindly provided PPG-1 and TSU-PrI cells.
as §1, §2, §3, §4
as §4, with “96-well” for “96 well”, “calculated as a percentage of untreated control.” for “measured.”

[3] = tested on: PPC-1 human prostate cancer cells; assay: SRB cytotoxicity assay, PPC-1; assay type: cell-based; conditions: Homo sapiens, read-out: IC50 PPC-1
Protocol: as §5, §1, §2, §3, §4
as §4, with “96-well” for “96 well”, “calculated as a percentage of untreated control.” for “measured.”

[4] = tested on: LNCaP human prostate cancer cells; assay: SRB cytotoxicity assay, LNCaP; assay type: cell-based; conditions: Homo sapiens
Protocol: as §1, §2, §3, §4
as §4, with “96-well” for “96 well”, “calculated as a percentage of untreated control.” for “measured.”

[5] = tested on: RH7777 rat hepatoma cells; assay: SRB cytotoxicity assay, RH7777 control cell line; assay type: cell-based; conditions: Rattus norvegicus, read-out: IC50 RH7777
Protocol: as §1, §2, §3, §4
as §4, with “96-well” for “96 well”, “calculated as a percentage of untreated control.” for “measured.”

[6] = tested on: DU-145 human prostate cancer cells; assay: SRB cytotoxicity assay, DU-145; assay type: cell-based; conditions: Homo sapiens
Protocol: as §1, §2, §3, §4
as §4, with “96-well” for “96 well”, “calculated as a percentage of untreated control.” for “measured.”

[7] = tested on: AKT phosphorylation (Pi-AKT) in LNCaP cells; assay: AKT phosphorylation by Western blot in LNCaP cells; assay type: cell-based, human
Protocol: As another assessment of cytotoxicity, AKT inhibition was measured. […] The immunoblots were visualized by enhanced, chemiluminescence, and changes of relative levels of phospho-AKT compared to total AKT by analog treatment were quantified by densitometric analysis.
Prostate cell line LNCaP cells were treated with 30 μM of the compound of Formula: [drawing 54]
for the indicated period and time. The active form of AKT (Pi-AKT) and the β-Actin were quantified by Western blot analysis. […]
Prostate cell line LNCaP cells were treated with 10 μM of the compound of Formula: [drawing 55]
for the indicated period and time. The active form of AKT (Pi-AKT) and AKT were quantified by Western blot analysis. […]
Prostate cell line LNCaP cells were treated with 10 μM of the compound of Formula [drawing 56]
for the indicated period and time. The active form of AKT (Pi-AKT), AKT and β-Actin were quantified by Western blot analysis. […]

[8] = tested on: human breast cancer cell line (MCF-7); assay: SRB cytotoxicity assay, MCF-7; assay type: cell-based; conditions: Homo sapiens, read-out: IC50 MCF-7
Protocol: as §1
In vitro cytotoxicity assay was performed by the same sulforhodamine B (SRB) assay (described above). The compounds shown in Table 8 below where tested for activity against the breast cancer and ovarian cancer cell lines.
as §3, §4

[9] = LNCaP, Table 3, 96 h, read-out: IC50 LNCaP
[10] = RH7777, Table 3, control cell line, 96 h
[11] = DU-145, read-out: IC50 DU-145, Table 3, 96 h
[12] = stated in the text of the LNCaP AKT experiments (Examples 12-14), test of the IC50 not named, read-out: IC50

melting point: 125 °C
Structure (SMILES): CCCCCCCCCCCCCCCCCCNC(=O)[C@@H]1CSC(c2c[nH]c3ccccc23)N1 (mixture of isomers) [Compound 10, (2RS, 4R)-2-(1H-Indol-3yl)-thiazolidine-4-carboxylic acid octadecylamide]
IC50 ([1]; Table 3): 11.5 µM
IC50 ([2]; TSU-Pr1, Table 3, 96 h): 4.4 µM
IC50 ([3]; PPC-1, Table 3, 96 h): 1.3 µM
IC50 [4, 9]: 2.1 µM
IC50 [5, 10]: > 20 µM
IC50 [6, 11]: 8.9 µM

Structure (SMILES): CCCCCCCCCCCCCCCCCCNC[C@H](CO)NC.Cl [drawing 55]
Time to almost complete inhibition of AKT phosphorylation ([7]; Example 13, 10 μM): ≤ 6 h
Relative abundance (Pi-AKT/AKT) ([7]; Example 13, 10 μM, 6 h, (−) control 1.00): 0.07
Relative abundance (Pi-AKT/AKT) ([7]; Example 13, 10 μM, 12 h): 0.31
Relative abundance (Pi-AKT/AKT) ([7]; Example 13, 10 μM, 24 h): 1.02
Relative abundance (Pi-AKT/AKT) ([7]; Example 13, 10 μM, 36 h): 0.63
Relative abundance (Pi-AKT/AKT) ([7]; Example 13, 10 μM, 48 h): 0.94
IC50 [4, 12]: 3.3 µM

Structure (SMILES): O=C(O)[C@@H]1CSC(c2ccc(F)cc2)N1 (stereo partly drawn)
IC50 ([1]; Example 11 table): > 100 µM
IC50 ([2]; TSU-Pr1, Example 11 table, 96 h): > 100 µM
IC50 ([3]; PPC-1, Example 11 table, 96 h): > 100 µM
IC50 ([4]; LNCaP, Example 11 table, 96 h, read-out: IC50 LNCaP): > 100 µM
IC50 ([5]; RH7777, Example 11 table, 96 h): > 100 µM
IC50 ([8]; MCF7, Example 11 table, 96 h): > 100 µM
IC50 ([6]; DU-145, Example 11 table, 96 h, read-out: IC50 DU145): > 100 µM

melting point: 113 °C
Structure (SMILES): CCCCCCCCCCCCCCCCCCNC(=O)[C@@H]1CSC(c2cc(F)cc(F)c2)N1 (mixture of isomers) [Compound 23, (2RS, 4R)-2-(3,5-Difluoro-phenyl)-thiazolidine-4-carboxylic acid octadecylamide]
IC50 ([1]; Table 4): > 20 µM
IC50 ([2]; TSU-Pr1, Table 4, 96 h): > 20 µM
IC50 ([3]; PPC-1, Table 4, 96 h): 10.6 µM
IC50 ([4]; LNCaP, Table 4, 96 h, read-out: IC50 LNCaP): 11.2 µM
IC50 ([5]; RH7777, Table 4, control cell line, 96 h): > 20 µM
IC50 ([6]; DU-145, read-out: IC50 DU-145, Table 4, 96 h): > 20 µM

Structure (SMILES): COc1ccc(C2N[C@H](C(=O)O)CS2)cc1 (stereo partly drawn)
IC50 [1]: > 100 µM
IC50 ([2]; TSU-Pr1, 96 h): > 100 µM
IC50 ([3]; PPC-1, 96 h): > 100 µM
IC50 ([4]; LNCaP, 96 h, read-out: IC50 LNCaP): ~50 µM
IC50 ([5]; RH7777, 96 h): > 100 µM
IC50 ([8]; MCF7, 96 h): ~100 µM
IC50 ([6]; DU-145, 96 h, read-out: IC50 DU145): ~100 µM

Structure (SMILES): CCCCCCCCCCCCCCCCCCNC(=O)[C@@H]1CSC(CCCCCCCCCCCC)N1 (mixture of isomers) [Compound 7, (2RS, 4R)-2-Dodecylthiazolidine-4-carboxylic acid octadecylamide]
IC50 ([1]; Table 3): 15 µM
IC50 ([2]; TSU-Pr1, Table 3, 96 h): 10.7 µM
IC50 ([3]; PPC-1, Table 3, 96 h): 13 µM
IC50 [4, 9]: 11.9 µM
IC50 [5, 10]: ~20 µM
IC50 ([8]; MCF7, Table 8, breast cancer cell line): 10.4 µM
IC50 [6, 11]: 8.9 µM

Structure (SMILES): CCCCCCCCCCCCCCCCCCNC(=O)[C@H](CO)NC(=O)OC(C)(C)C
Relative abundance (Pi-AKT/β-Actin) ([7]; 30 μM, 1 h, (−) control 1.00): 1.29
Relative abundance (Pi-AKT/β-Actin) ([7]; 30 μM, 2 h): 1.01
Relative abundance (Pi-AKT/β-Actin) ([7]; 30 μM, 6 h): 0.71
Relative abundance (Pi-AKT/β-Actin) ([7]; 30 μM, 12 h): 0.50
Relative abundance (Pi-AKT/β-Actin) ([7]; 30 μM, 24 h): 0.32
Relative abundance (Pi-AKT/β-Actin) ([7]; 30 μM, 48 h): <0.10
Relative abundance (Pi-AKT/β-Actin) ([7]; 30 μM, 72 h): <0.10
AKT phosphorylation inhibited to ([7]; 30 μM, by 12 hours of treatment): 50%
IC50 [4, 12]: 10.3 µM
